Assay results taken from patent US20080253996A1, “Use of Sdf-1 for the Treatment and/or Prevention of Neurological Diseases” (LABORATORIES SERONO SA, priority 2005, published 2008).

Tests used:
[1] = system: primary mixed cortical cultures stimulated with LPS; assay: Cytokine release (TNF-α, IL-6) from LPS stimulated primary mixed cortical cultures; type: cell-based, mouse
Experimental: Culturing of primary cells was performed as described (Lubetzki et al., 1993) using brain tissue from embryos isolated from NMRI mice at 16 days post-coitum. Cerebral hemispheres were dissected from embryo brains, dissociated via trypsin digestion and the single cell suspension was seeded at 5×10^4 cells in 50 μl myelination medium per well onto BioCoat® poly-L-lysine coated 96-well plates (356516, Becton Dickinson). The myelination medium consisted of Bottenstein-Sato medium (Bottenstein and Sato, 1979; Sadir et al., 2001), supplemented with 1% FCS, 1% penicillin-streptomycin solution (Seromed) and recombinant platelet-derived growth factor AA (PDGF-AA, R&D Systems) at 10 ng/mL.
For testing the effects of SDF-1α and SDF-1α variant (as defined in SEQ ID NO: 4) on LPS stimulated cultures, cells were allowed to grow for two weeks. At day 14 cells were pre-incubated with increasing concentrations (0.001, 0.1 and 10 ng/ml) of the corresponding proteins into 25 μl of medium for three hours at 37° C. and 10% CO2. LPS was then supplemented to the cells at the concentration of 5 ng/ml into 25 μl of medium to obtain a final volume of 100 μl and incubated for 48 hours. Supernatants were collected at day 16 and the levels of TNF-α and IL-6 (the major cytokines released by activated microglia) were measured via specific ELISAs purchased from R&D systems (DuoSet mouse TNF-α ELISA DY410, mouse IL-6 ELISA DY406).
Global analysis of the data was performed using one-way ANOVA. Dunnett's test was used further, and data were compared to the “untreated cells”. The level of significance was set at a: p<0.001; b or **: p<0.01; c or *: p<0.05; d: p<0.1. The results were expressed as mean ±standard error of the mean (s.e.m.).

[2] = system: leukocytes recruited in the peritoneal cavity; assay: In vivo model of peritoneal cell recruitment; parameters: species or system mouse; settings: 4 μg i.p. in Balb/C mice, 4 hours post injection
Experimental: 8-12 week old, female Balb/C mice (Janvier, France) were injected intra peritoneally (i.p.) with 200 μl NaCl (0.9%, LPS free) or chemokine 4 μg (WT SDF-1α or SDF-1α variant according to SEQ ID NO:4 diluted in 200 μl NaCl (0.9%, LPS free). […] of WT or mutant SDF-1α, mice were sacrificed by CO2 asphyxiation, the peritoneal cavity was washed with 3×5 ml ice cold PBS and the total lavage was pooled for individual mice. Total cells collected were counted by haemocytometer (Neubauer, Germany).

[3] = pre-incubation 3 h (SDF proteins 0.001, 0.1, 10 ng/ml; IL-10 10 ng/ml; dexamethasone 25 pM), then LPS 5 ng/ml 48 h, ELISA, compared to untreated cells

Substance: SDF-1α: Human recombinant chemokine SDF-1α (SEQ ID NO: 1), produced in house, expressed in E. Coli cells
- levels of IL-6 secretion [1, 3]: significantly decreased
- levels of TNF-α secretion [1, 3]: significantly decreased
- best concentration for decrease of TNF-α and IL-6 secretion ([1]; tested 0.001, 0.1 and 10 ng/ml, LPS 5 ng/ml 48 h): 10 ng/mL
- leukocyte recruitment in the peritoneal cavity [2]: recruits leukocytes
